Source: patent EP0455830B1, “MEDICINE CONTAINING THIAZINE DIOXIDE DERIVATIVE” (NIPPON HYPOX LABORATORIES INCORPORATED, priority 1989, dated 1991)
Several values for one entry are separate records, joined by “and”; a condition that tells them apart may be missing. Equal entries are not always repeated. Where two headings read alike, the source gives them in different places.

Assays:
[1] = tested on: stomach contraction caused by cisplatin; assay: Effect on inhibition of stomach contraction caused by cisplatin (Example 8); type: in vivo, female Fischer rats; settings: with cisplatin 2 mg/kg subcutaneously once a day for 4 days
Protocol: Effect on inhibition of stomach contraction caused by cisplatin
Cisplatin in a dose of 2 mg/kg was administered subcutaneously into female Fischer rats (5 weeks of age) once a day for 4 days, and at the same time, HX-1920 was administered intraperitoneally or orally.
[…] For the cisplatin non-administered group and the cisplatin administered vehicle control group, 1 ml/day of a 1 % gum arabic solution was administered per rat.

[2] = tested on: nephritis caused by cisplatin; assay: Effect on nephritis caused by cisplatin - 3 (Example 4), BUN and survival; type: in vivo, male ICR rats; settings: with cisplatin 3 mg/kg subcutaneously for 4 days
Protocol: Effect on nephritis caused by cisplatin - 3
Ten male ICR rats (8 weeks of age) per group were administered subcutaneously with 3 mg/kg of cisplatin for 4 days, and at the same, HX-1920 was orally administered in a dose of 100 mg/kg. Sixteen hours after the final administration, 5 rats of each group were measured for blood urea nitrogen (BUN), and the survival ratios of the remaining 5 rats of each group for the subsequent 5 days were examined. […] Thus, the effect of the administration of HX-1920 on the alleviation of renal dysfunctions was observed. […]

[3] = tested on: nephritis caused by cisplatin; assay: Effect on nephritis caused by cisplatin - 4 (Example 5); type: in vivo, female F344 rats; settings: for BUN / Creatinine: cisplatin 1 mg/kg hypodermically for 8 days, 24 h after final cisplatin; for inhibition at 100 mg/kg: Rattus norvegicus, po, 100 mg/kg p.o., inhibition of the cisplatin-induced increase
Protocol: Effect on nephritis caused by cisplatin - 4
Six to seven female F344 rats per group weighing about 150 g, per group, were administered hypodermically in the dorsal portion with 1 mg/kg of cisplatin dissolved in a physiological saline solution once a day over 8 days. Twenty-four hours after the final administration of the cisplatin, the rats were anesthtized with ether, and the blood was collected from each rat, centrifuged and measured for blood urea nitrogen (BUN) and creatinine with an autoanalyzer Olympus AU-550.
HX-1920 which was a substance to be tested was dissolved in a 2.5 % NaHCO₃, and the resultant solution was administered orally in a dose of 10 or 100 mg/kg over 8 days immediately before the administration of the cisplatin.
The increases in BUN and creatinine by the administration of cisplatin are considered to be characteristics in acute renal failure. […]

[4] = tested on: vomiting induced by the cisplatin; assay: Effect on inhibition of vomiting caused by cisplatin -2 (Example 7), manifestation ratio; type: in vivo, mongrel dogs
Protocol: Effect on inhibition of vomiting caused by cisplatin -2
Female and male mongrel dogs weiging about 10 kg were administered intravenously with 0.4 mg/kg/day of cisplatin dissolved in a physiological saline solution for the initial 3 days and with 0.8 mg/kg/day of cisplatin for the subsequent 4 days to examine the effects of substances to be tested on the basis of a manifestation ratio, as an index, of vomiting induced by the cisplatin.
HX-1920, which was a substance to be tested, was dissolved in a 10 % Nikkol solution (Nikkol: trade name, dissolving aid manufactured by Nikko Chemical Co., Ltd.) containing 1 % NaHCO₃, and put into gelatin soft capsules, and the capsules were administered orally 30 minutes before the administration of cisplatin.
In addition, as a known domperidone type antiemetic, a 1 % Nauzelin powder was put into gelatin soft capsules, and administered orally 30 minutes before the administration of cisplatin.

[5] = tested on: nephritis caused by cisplatin; assay: Effect on nephritis caused by cisplatin - 2 (Example 3); type: in vivo, female Fischer rats; settings: with cisplatin 1 mg/kg hypodermically for 8 days, 24 h after final administration
Protocol: Effect on nephritis caused by cisplatin - 2
Six female Fischer rats (8 weeks of age) per group were administered hypodermically with 1 mg/kg of cisplatin for 8 days, and at the same time, HX-1920 was administered orally in a dose of 10 mg or 100 mg/kg. In both the administrations, the blood urea nitrogen (BUN) and creatinine measured 24 hours after the final administration tended to show lower values. […]

[6] = tested on: nephritis caused by cisplatin; assay: Effect on nephritis caused by cisplatin -1 (Example 2); type: in vivo, female Fischer rats; settings: with cisplatin 2 mg/kg hypodermically for 5 days, 24 h after final administration
Protocol: Effect on nephritis caused by cisplatin -1
Five female Fischer rats (5 weeks of age) per group were administered hypodermically with 2 mg/kg of cisplatin for 5 days, and at the same time, HX-1920 was administered orally in a dose of 50 mg or 150 mg/kg, or administered intraperitoneally in a dose of 10 or 30 mg/kg. Twenty-four hours after the final administration, the rats were sacrificed, and their blood urea nitrogen (BUN) and creatinine were measured.

[7] = tested on: vomiting caused by cisplatin; assay: Effect on inhibition of vomiting caused by cisplatin -1 (Example 6), degree of vomiting per dog; type: in vivo; design: key: III: Extreme; II: Moderate; I: Slight; 0: No vomiting; settings: 20 mg/kg p.o. (capsule) 30 min before i.v. cisplatin; individual dogs
Protocol: Effect on inhibition of vomiting caused by cisplatin -1
Five dogs (7 - 12.5 kg) per group were admininistered intravenously with 0.4 mg/kg of cisplatin per day for the initial 3 days and with 0.8 mg/kg of cisplatin per day for the subsequent 1 day. HX-1920 in a dose of 20 mg/kg was encapsulated and administered 30 minutes before the intravenous administration of cisplatin. Separately, Nauzelin (trade name, manufactured by Kyowa Hakko Kogyo Co., Ltd.), which was a domperidone type antiemetic, was administered to another group of five dogs in a dose of 2 mg/kg for 7 days. […] The vomiting was cured after 24 hours. However, the same symptom was repeatedly manifested when cisplatin was administered. […] Thus, the effect of HX-1920 on the alleviation of the vomit-inducing activity of the carcinostatic cisplatin was evident.

[8] = 10 mg/kg/day p.o. in 2.5 % NaHCO3 over 8 days
[9] = 100 mg/kg/day p.o. in 2.5 % NaHCO3 over 8 days
[10] = 20 mg/kg orally in capsules 30 min before i.v. cisplatin (0.4 mg/kg/day 3 days, then 0.8 mg/kg/day 4 days)

For `CN1C(C(=O)Nc2ccccc2-c2nnn[nH]2)=C(O)c2ccccc2S1(=O)=O` [HX-1920, 4-hydroxy-2-methyl-N-(2-(1H-tetrazol-5-yl)phenyl)2H-1,2-benzothiazine-3-carboxamide-1,1-dioxide], the “Diameter of center of stomach” value ([1]; 10 mg/kg i.p.) was 0.97±0.07 mm, the “Diameter of center of stomach” value ([1]; 30 mg/kg i.p.) was 1.18±0.07 mm and the “Diameter of center of stomach” value ([1]; 150 mg/kg p.o.) was 1.14±0.07 mm. The “survival (in words)” value ([2]; 100 mg/kg p.o., subsequent 5 days, all vehicle control rats died) was “all of the five rats of the HX-1920 administered group survived”, the BUN ([2]; 100 mg/kg/day p.o., 16 h after final administration) was 78.3 ± 45.7 mg/dL and the Survival ratio ([2]; 100 mg/kg/day p.o., survival over the subsequent 5 days) was 100%. For the same compound, the “inhibition activity against increase in BUN and creatinine (in words)” value ([3]; 10 mg/kg p.o.) was “did not exhibit clear inhibition activity”, the BUN [3, 8] was 51.1 ± 16.5 mg/dL and the Creatinine [3, 8] was 1.15 ± 0.29 mg/dL. The BUN [3, 9] was 38.0 ± 6.1 mg/dL, the Creatinine [3, 9] was 0.96 ± 0.05 mg/dL and the inhibition at 100 mg/kg ([3]; read-out: inhibition activity in BUN) was 38%. The inhibition at 100 mg/kg ([3]; read-out: inhibition activity in creatinine) was 25%, the “Vomiting manifestation ratio (%) 4th day” value [4, 10] was 29.4% and the “Vomiting manifestation ratio (%) 5th day” value [4, 10] was 23.5%. For the same compound, the “Vomiting manifestation ratio (%) 6th day” value [4, 10] was 29.4%, the “Vomiting manifestation ratio (%) 7th day” value [4, 10] was 52.9% and the “manifestation of vomiting (in words)” value ([4]; 20 mg/kg orally, compared with the vehicle control group) was “clearly inhibited”. For the same compound, the BUN ([5]; 10 mg/kg/day p.o.) was 51.1 ± 16.5 mg/dL, the Creatinine ([5]; 10 mg/kg/day p.o.) was 1.15 ± 0.29 mg/dL and the BUN ([5]; 100 mg/kg/day p.o.) was 38.0 ± 6.4 mg/dL. For the same compound, the Creatinine ([5]; 100 mg/kg/day p.o.) was 0.96 ± 0.05 mg/dL, the BUN ([6]; 10 mg/kg/day i.p.) was 102.8 ± 29.5 mg/dL and the Creatinine ([6]; 10 mg/kg/day i.p.) was 0.70 ± 0.04 mg/dL. For the same compound, the BUN ([6]; 30 mg/kg/day i.p.) was 69.6 ± 22.2 mg/dL, the Creatinine ([6]; 30 mg/kg/day i.p.) was 0.65 ± 0.04 mg/dL and the BUN ([6]; 50 mg/kg/day p.o.) was 138.1 ± 47.6 mg/dL. It also gave a Creatinine ([6]; 50 mg/kg/day p.o.) of 0.83 ± 0.31 mg/dL, a BUN ([6]; 150 mg/kg/day p.o.) of 91.1 ± 58.6 mg/dL and a Creatinine ([6]; 150 mg/kg/day p.o.) of 0.65 ± 0.11 mg/dL. For the same compound, the “Degree of vomiting 5th day” value [7] was 0 (4×) and I, the “Degree of vomiting 6th day” value [7] was “I (2×) and 0 (3×)” and the “Degree of vomiting 7th day” value [7] was “I (3×) and 0 (2×)”.
